How the values were obtained:
[1] = In vitro liver microsomal stability assay, rat; type: in vitro ADME; settings: for Remaining amount % at 60 min: Rat liver microsomes 0.5 mg/mL, NADPH; for microsomal CLint at 1 µM: read-out: CLint(mic)
Procedure: (§1) 1) Preparation of working solutions of test samples: The test samples were diluted with acetonitrile to 100 M.
(§2) 2) Preparation of a working solution of liver microsomes: liver microsomes were diluted with 100 mM phosphate-buffered saline to 0.56 mg/mL.
(§3) 3) Preparation of a working solution of reduced nicotinamide adenine dinucleotide (NADPH): A proper amount of NADPH was weighed out and diluted with phosphate-buffered saline to 20 mM, and an equal volume of a 60 mM MgCl2 solution was added.
(§4) 4) Preparation of a stop solution: Tolbutamide was diluted with acetonitrile to 20 ng/mL, serving as a stop solution containing an internal standard.
(§5) 1) Incubation anti-adsorption EP tubes were prepared and labeled with species, test/control sample, time points (0, 5, 10, 20, 30, 60 min, Blank60, and NCF60), etc.
(§6) 2) 2 L of test or control sample working solution, diluted with acetonitrile to 100 M, and 178 L of liver microsome working solution were added to each tube. For the Blank60 tube, 2 L of acetonitrile was added instead of a test sample. The tubes were pre-incubated in a 37° C. water bath for about 10 min, with each sample tested in triplicate.
(§7) 3) After the pre-incubation was complete, 20 L of NADPH working solution was added to each tube except for the 0 min and NCF60 tubes to start reactions, and 20 L of phosphate-buffered saline (containing 30 mM MgCl2) was added to the NCF60 tube. In the incubation system, the final concentrations of the test and control samples were 1 M, the final concentration of liver microsomes was 0.5 mg/mL, the final concentration of NADPH was 1 mM, and the final concentration of MgCl2 was 3 mM.
(§8) 4) For the 0 min sample, 600 L of stop solution was added before adding the NADPH working solution. After each sample was incubated for its respective time, 600 L of stop solution was added to stop the reaction.
(§9) 5) After the reaction was stopped, each sample was vortexed for 30 s and then centrifuged at 13,500 rpm for 10 min. 100 L of the supernatant was transferred to an EP tube, and 100 L Milli-Q water was added. The mixture was well mixed by vortexing and analyzed by LC-MS/MS.
(§10) 6) Testosterone and dextromethorphan were used as positive control samples under the same conditions to assess the stability and reliability of the system.
(§11) Parameters of the test samples, including their half-lives, intrinsic clearance rates in liver microsomes, and hepatic intrinsic clearance rates, were calculated based on the percentage of test sample remaining.

[2] = target: T1, α1β2γ2 GABA receptors (α1β2γ2-CHO-TRex stable cell strain) (Homo sapiens, UniProt P14867+P47870); assay: Whole-cell patch clamp, intrasynaptic functional activity (positive allosteric regulation of GABA-induced current); type: cell-based; settings: patch clamp -60 mV, GABA at EC10-20, α1β2γ2-CHO-TRex cells
T1 construct: expressed in transfected cells
Procedure: (§12) The α4β3δ-HEK-FlpIn-TRex stable cell strain was cultured in DMEM+10% FBS complete culture medium, with the selective antibiotics being 10 μg/mL Blasticidin, 100 µg/mL Zeocin, 100 µg/mL Hygromycin, and 0.2 μg/mL Puromycin. The α1β2γ2-CHO-TRex stable cell strain was cultured in DMEM/F12+10% FBS complete culture medium, with the selective antibiotics being 10 μg/mL Blasticidin, 100 μg/mL Zeocin, 300 μg/mL Hygromycin, and […] Puromycin.
(§13) The day before the patch clamp experiment, cells were seeded onto 12 mm polylysine-coated coverslips and then cultured in 35 mm culture dishes, and tetracycline ([…]) was added to induce the expression of GABA receptors. The extracellular fluid had the following composition (in mM): 140 NaCl, 3 KCl, 1.5 MgCl2, 2 CaCl2, 10 HEPES, and 10 Glucose. After thorough mixing, NaOH was added to adjust the pH to 7.4, and sucrose was added to adjust the osmotic pressure to 300-320 mOsm. The fluid was stored at 4° C. The electrode internal solution had the following composition (in mM): 145 KCl, 1 MgCl2, 5 EGTA, 10 HEPES, and 5 MgATP. After thorough mixing, KOH was added to adjust the pH to 7.3, and sucrose was added to adjust the osmotic pressure to 290-300 mOsm. The solution was filtered through a […] before use.
(§14) Whole-cell patch clamp recording was mainly employed in this experiment. The membrane potential was clamped at −60 mV, and receptors were activated using GABA at an EC10-20 concentration ([…]). The test compounds were dissolved in 0.1% DMSO, and perfusion was performed for 30 s prior to GABA stimulation. Finally, the positive allosteric regulating effects of the test compounds on α1β2γ2 or α4β3δ were determined.
(§15) The experimental result for each concentration was expressed as a fold increase in the GABA-induced current caused by the compound. […] At least 5 concentrations are tested to obtain a complete EC50 curve and EC50 values. All experiments were repeated on no less than 3 cells, and data processing was completed using GraphPad prism software. The dose-response curves were fitted using the Hill equation, and the half-maximal activating concentration EC50 and Emax were finally obtained.

[3] = target: T2, α4β3δ GABA receptors (α4β3δ-HEK-FlpIn-TRex stable cell strain) (Homo sapiens, UniProt P28472+P48169); assay: Whole-cell patch clamp, extrasynaptic functional activity (positive allosteric regulation of GABA-induced current); type: cell-based; settings: patch clamp -60 mV, GABA at EC10-20, α4β3δ-HEK-FlpIn-TRex cells
T2 construct: expressed in transfected cells
Procedure: as §12, §13, §14, §15

[4] = In vitro liver microsomal stability assay, human; type: in vitro ADME; settings: for CLint scaled at 1 µM / half-life at 1 µM / microsomal CLint at 1 µM / T1/2: Human liver microsomes; for Remaining amount % at 60 min: Human liver microsomes 0.5 mg/mL, NADPH; for microsomal CLint at 1 µM: read-out: CLint(mic)
Procedure: as §1, §2, §3, §4, §5, §6, §7, §8, §9, §10, §11

T1 sequence (P14867 28-456): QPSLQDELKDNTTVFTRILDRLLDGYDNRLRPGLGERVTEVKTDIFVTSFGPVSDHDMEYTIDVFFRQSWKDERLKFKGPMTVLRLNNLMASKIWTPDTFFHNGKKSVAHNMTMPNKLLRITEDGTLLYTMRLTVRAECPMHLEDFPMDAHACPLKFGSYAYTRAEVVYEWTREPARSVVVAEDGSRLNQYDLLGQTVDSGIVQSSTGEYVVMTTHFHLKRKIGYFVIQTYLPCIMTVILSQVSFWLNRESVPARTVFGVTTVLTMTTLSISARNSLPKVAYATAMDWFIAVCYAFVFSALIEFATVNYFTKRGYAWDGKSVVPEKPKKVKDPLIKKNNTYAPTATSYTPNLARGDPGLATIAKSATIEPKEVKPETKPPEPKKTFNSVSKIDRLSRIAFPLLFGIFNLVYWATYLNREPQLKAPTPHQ
T1 sequence (P47870 25-512 limits assumed): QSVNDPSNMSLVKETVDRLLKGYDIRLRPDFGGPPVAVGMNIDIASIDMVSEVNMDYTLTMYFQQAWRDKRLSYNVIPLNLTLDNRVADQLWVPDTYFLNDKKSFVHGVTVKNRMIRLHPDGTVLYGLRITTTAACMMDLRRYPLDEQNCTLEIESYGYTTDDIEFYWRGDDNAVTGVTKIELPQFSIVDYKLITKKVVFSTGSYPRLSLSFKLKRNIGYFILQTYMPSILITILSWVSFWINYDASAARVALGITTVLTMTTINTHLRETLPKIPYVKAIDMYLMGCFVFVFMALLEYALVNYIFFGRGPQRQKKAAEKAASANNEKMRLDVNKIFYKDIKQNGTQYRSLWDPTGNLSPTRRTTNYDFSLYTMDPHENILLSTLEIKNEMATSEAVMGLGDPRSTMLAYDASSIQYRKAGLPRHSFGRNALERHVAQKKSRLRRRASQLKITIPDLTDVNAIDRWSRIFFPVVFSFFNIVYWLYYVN
T1 sequence (P18507 40-475 partner): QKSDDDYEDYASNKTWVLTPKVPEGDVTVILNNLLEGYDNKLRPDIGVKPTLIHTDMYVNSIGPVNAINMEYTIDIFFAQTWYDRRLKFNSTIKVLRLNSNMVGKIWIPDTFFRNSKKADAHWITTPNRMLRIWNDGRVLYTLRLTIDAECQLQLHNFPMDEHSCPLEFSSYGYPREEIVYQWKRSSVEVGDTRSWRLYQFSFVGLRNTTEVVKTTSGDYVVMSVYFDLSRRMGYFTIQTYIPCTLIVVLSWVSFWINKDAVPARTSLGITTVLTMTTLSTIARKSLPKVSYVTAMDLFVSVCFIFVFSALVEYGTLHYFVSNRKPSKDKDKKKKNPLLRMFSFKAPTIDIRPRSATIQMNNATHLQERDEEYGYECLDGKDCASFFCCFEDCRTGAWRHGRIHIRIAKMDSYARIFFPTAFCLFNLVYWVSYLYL
T2 sequence (P48169 36-554): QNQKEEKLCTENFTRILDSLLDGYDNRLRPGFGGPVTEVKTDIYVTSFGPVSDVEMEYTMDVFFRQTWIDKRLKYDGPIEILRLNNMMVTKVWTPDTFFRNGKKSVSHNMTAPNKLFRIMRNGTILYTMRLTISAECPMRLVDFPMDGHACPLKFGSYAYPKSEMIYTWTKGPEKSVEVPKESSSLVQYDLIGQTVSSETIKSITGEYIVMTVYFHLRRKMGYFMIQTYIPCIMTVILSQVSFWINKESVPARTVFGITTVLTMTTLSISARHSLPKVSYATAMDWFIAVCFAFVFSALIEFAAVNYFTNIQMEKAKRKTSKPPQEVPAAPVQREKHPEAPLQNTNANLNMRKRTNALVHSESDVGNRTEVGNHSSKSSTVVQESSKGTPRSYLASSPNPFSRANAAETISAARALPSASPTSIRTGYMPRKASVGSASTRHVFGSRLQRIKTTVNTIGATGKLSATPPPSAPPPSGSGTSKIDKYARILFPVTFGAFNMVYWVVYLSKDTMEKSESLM
T2 sequence (P28472 26-473): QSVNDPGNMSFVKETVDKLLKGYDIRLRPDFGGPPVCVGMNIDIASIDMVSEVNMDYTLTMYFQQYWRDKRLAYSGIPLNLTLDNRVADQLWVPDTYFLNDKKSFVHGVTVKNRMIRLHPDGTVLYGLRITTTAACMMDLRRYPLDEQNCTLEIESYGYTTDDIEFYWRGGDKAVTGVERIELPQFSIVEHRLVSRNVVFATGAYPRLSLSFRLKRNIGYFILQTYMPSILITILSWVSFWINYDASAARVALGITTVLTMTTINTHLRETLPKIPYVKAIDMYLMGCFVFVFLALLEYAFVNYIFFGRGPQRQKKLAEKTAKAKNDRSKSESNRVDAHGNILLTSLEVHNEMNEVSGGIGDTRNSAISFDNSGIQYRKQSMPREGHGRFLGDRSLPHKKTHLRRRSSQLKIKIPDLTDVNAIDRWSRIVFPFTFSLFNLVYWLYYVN
T2 sequence (O14764 25-452 partner): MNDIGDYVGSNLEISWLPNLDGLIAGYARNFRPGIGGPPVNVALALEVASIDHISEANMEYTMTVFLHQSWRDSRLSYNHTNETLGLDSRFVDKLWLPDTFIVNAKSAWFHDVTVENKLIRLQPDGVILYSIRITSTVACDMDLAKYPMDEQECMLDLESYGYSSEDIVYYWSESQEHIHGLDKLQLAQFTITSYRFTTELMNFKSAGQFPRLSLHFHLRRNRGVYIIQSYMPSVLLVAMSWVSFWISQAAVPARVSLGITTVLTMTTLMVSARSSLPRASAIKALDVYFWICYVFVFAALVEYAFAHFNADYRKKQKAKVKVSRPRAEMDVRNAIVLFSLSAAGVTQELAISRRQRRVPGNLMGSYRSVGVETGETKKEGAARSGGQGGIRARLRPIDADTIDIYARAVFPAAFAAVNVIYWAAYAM

Structure (SMILES) | CLint scaled at 1 µM ([1]; Rat liver microsomes) [mL/min/kg] | half-life at 1 µM ([1]; Rat liver microsomes) [min] | Remaining amount % at 60 min [1] [%] | microsomal CLint at 1 µM ([1]; Rat liver microsomes) [µL/min/mg] | EC50 [2] [nM] | Emax [2] [%] | EC50 [3] [nM] | Emax [3] [%] | CLint scaled at 1 µM [4] [mL/min/kg] | half-life at 1 µM [4] [min] | Remaining amount % at 60 min [4] [%] | microsomal CLint at 1 µM [4] [µL/min/mg] | T1/2 ([1]; Rat liver microsomes) [min] | T1/2 [4] [min]
C[C@@]1(O)CC[C@H]2[C@H](CC[C@@H]3[C@@H]2CC[C@]2(C)[C@@H](C(=O)Cn4cnn(-c5ccc(F)cc5)c4=O)CC[C@@H]32)C1 [Compound 4] | 93 | 27 | 37.09 | 51 | 220 | 390 | 170 | 410 | 13 | 96.3 | 64.0 | 14 |  | 
C[C@@]1(O)CC[C@H]2[C@H](CC[C@@H]3[C@@H]2CC[C@]2(C)[C@@H](C(=O)Cn4cnn(-c5ccnc(F)c5)c4=O)CC[C@@H]32)C1 [Compound 21] | 69 | 36.3 | 31.9 | 38 | 153 |  | 116 |  | 23 | 53.3 | 47.9 | 26 |  | 
C[C@@]1(O)CC[C@H]2[C@H](CC[C@@H]3[C@@H]2CC[C@]2(C)[C@@H](C(=O)Cn4cnn(-c5nccs5)c4=O)CC[C@@H]32)C1 [Compound 32] | 152 | 15.4 | 7.7 | 85 | 330 | 763 | 126 | 633 | 19 | 64.8 | 66.8 | 21 |  | 
C[C@@]1(O)CC[C@H]2[C@H](CC[C@@H]3[C@@H]2CC[C@]2(C)[C@@H](C(=O)Cn4cnn(-c5cccc(C#N)c5)c4=O)CC[C@@H]32)C1 [Compound 34] | 98 | 25.6 | 20.5 | 54 | 112 |  | 50 | 683 | 7 | 178 | 79.9 | 8 |  | 
C[C@@]1(O)CC[C@H]2[C@H](CC[C@@H]3[C@@H]2CC[C@]2(C)[C@@H](C(=O)Cn4ncn(-c5ccc(F)cc5)c4=O)CC[C@@H]32)C1 [Compound 9] | 239 |  | 4.19 | 133 | 12.4 | 294 | 148 | 428 | 38 |  | 24.73 | 42 | 10.3 | 32.8
C[C@@]1(O)CC[C@H]2[C@H](CC[C@@H]3[C@@H]2CC[C@]2(C)[C@@H](C(=O)Cn4cnn(-c5ccnc(OCC(F)(F)F)c5)c4=O)CC[C@@H]32)C1 [Compound 39] | < 13.5 | > 186 | 90.6 | < 7.5 |  | 675 |  | 967 | 8 |  | 76.2 | 9 |  | 154

— patent US20250368678A1, “19-NOR-C3,3-DISUBSTITUTED C21-AZACYCLO-S[…] AND METHOD FOR USING SAME” (SHANDONG LUYE PHARMACEUTICAL CO., LTD., priority 2022, published 2025)
